The text below walks through data of paper PMC7747594, “Protease-activated receptor-2 ligands reveal orthosteric and allosteric mechanisms of receptor inhibition” (Communications Biology, 2020).

Values joined by “and” are separate entries in the source; they are usually repeats but may differ in a detail not shown here. Equal entries are not always repeated.

The target of one experiment is T1, hPAR2 (Homo sapiens, UniProt P55085).
T1 sequence (P55085 26-397): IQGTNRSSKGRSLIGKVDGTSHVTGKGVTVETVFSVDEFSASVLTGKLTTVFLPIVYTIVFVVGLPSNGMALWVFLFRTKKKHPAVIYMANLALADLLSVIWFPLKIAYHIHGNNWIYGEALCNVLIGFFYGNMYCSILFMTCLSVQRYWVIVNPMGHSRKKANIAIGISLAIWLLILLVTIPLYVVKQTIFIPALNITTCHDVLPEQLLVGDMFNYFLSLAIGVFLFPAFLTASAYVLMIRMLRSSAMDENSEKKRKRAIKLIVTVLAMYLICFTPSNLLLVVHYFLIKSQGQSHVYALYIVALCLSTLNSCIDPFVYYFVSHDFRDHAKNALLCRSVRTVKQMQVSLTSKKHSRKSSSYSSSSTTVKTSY
Briefly: Ca^2+ flux assay, inhibition of tryptase activation in 1321N1-hPAR2 cells. Format: cell-based. The settings on record: 1 µM Vorapaxar. The protocol:
For evaluation of Ca^2+ mobilisation, 1321N1-hPAR2 cells were seeded in 384-well CellBIND plates (Corning) at 4000 cells per well in DMEM containing 10% FBS and incubated for 18–24 hours at 37 °C, 5% CO2 and 95% humidity. Cells were loaded with Fluo-8 NW calcium dye (AAT Bioquest) for 30 min at 37 °C before compounds in Hank’s balanced salt solution (HBSS, ThermoFisher Scientific) with 20 mM HEPES (ThermoFisher Scientific), 0.1% bovine serum albumin (BSA, Sigma) and 0.5% DMSO were added and simultaneously evaluated for changes in intracellular [Ca^2+] using FLIPR TETRA (Molecular Devices) to detect agonism. For each concentration, the difference between the maximum peak Ca^2+ response and baseline response is reported. […] Inhibition of Ca^2+ release on rat PAR2 was measured in the same way using 10 000 KNRK cells per well seeded in poly-D-lysine coated 384-well plates (Greiner), 30 min preincubation with the compound before activation of PAR2 with EC80 of SLIGRL-NH2 (120 µM) and real-time detection of Ca^2+. […] Intracellular [Ca^2+] flux was measured using FLIPR TETRA (Molecular Devices) and the difference between the maximum peak Ca^2+ response and baseline response is reported.

For the next experiment, the system named is mast cells. Kind of experiment: Immunohistochemistry, histamine release in rat paw. It counts as in vivo. The settings on record: pre-treatment; 30 min. On the procedure:
(§1) Rat paw tissues were collected, fixed in 10% neutral-buffered formalin (Sigma-Aldrich) for 2 h at 4 °C, transferred into falcon tubes containing 25% sucrose in PBS and left overnight at 4 °C. Tissues were then embedded with Optimal Cutting Temperature compound (OCT, Sakura Finetek, USA) and stored at −80 °C before making cryo-sections for histological analysis. Frozen sections (5 µm) were made using a cryostat-microtome (Leica Biosystems, Germany). For mast cell staining, slides were briefly washed with distilled water before staining with 0.1% toluidine blue (Sigma-Aldrich, pH 2.5) for 3 min. Slides were then dehydrated and mounted in DPX mountant (Sigma-Aldrich, USA). For immunohistochemistry, slides were briefly rinsed with PBS to remove OCT. Except for tryptase staining, antigen retrieval was performed by incubating slides in citrate buffer (0.01 M, pH 6) at 95 °C for 20 min. They were then cooled down briefly and incubated with blocking medium (PBS, 0.1% Triton X-100, 10% horse serum) for 1 h at room temperature in a humidity chamber. Samples were incubated with primary antibody medium (PBS, 0.1% Triton X-100, 4% horse serum; 1:100 primary antibody including – histamine, neutrophil elastase or ED1 antibodies) overnight at 4 °C. […] Tryptase-, neutrophil elastase- and ED1-positive cells were quantified using FIJI/ImageJ 1.42q software, USA.

The next experiment relates to macrophages. Kind of experiment: Immunohistochemistry, ED1-positive macrophages in rat paw. The settings on record: 30 min after agonist administration. It counts as in vivo. On the procedure: as §1
Experiment [1] has as its system myeloperoxidase (MPO) activity. Kind of experiment: Myeloperoxidase assay on rat paw tissue. It counts as in vivo. The conditions noted are these: for MPO activity (unit mg^-1): 2f-induced rat paw oedema, paw tissue, individual animals (Figure 5i); for Myeloperoxidase (MPO) activity increased by 2f-LIGRLO-NH2: pre-treatment, 30 min. On the procedure: Rat paw tissues were collected, snap-frozen with liquid N2, and stored at −80 °C. Samples were cut with a scalpel, weighed, and added to MPO buffer (50 mM potassium phosphate buffer, pH 6.0) to a concentration of 200 mg ml^−^1, before homogenising using zirconium oxide beads (1 and 2 mm, Next Advance, USA) and a Bullet Blender® homogeniser (Next Advance, USA). Homogenised tissues were diluted to 100 mg ml^−1 with MPO buffer containing 1% hexadecyl trimethylammonium bromide (Sigma-Aldrich, USA). Samples were then sonicated for 5 min, centrifuged at 13,000 × g for 10 min at 4 °C, and the clear supernatant for each sample was collected.

On to `C[C@@H](C1CCCCC1)n1c(-c2cc3c(cc2Br)OCO3)nc2cc(C(=O)Nc3ccncc3)ccc21` [AZ2623], for which the “inhibition of tryptase-induced Ca^2+ response” value against hPAR2 is “only partial inhibition at low”.
`C[C@@H](C1CCCCC1)n1c(-c2cc3c(cc2Br)OCO3)nc2cc(C(=O)Nc3ccc(C#N)cc3)ccc21` [AZ3451]: in the experiment on mast cells, the histamine release entry is “blocked”. For the same compound, the “number of ED1 +ve cells in rat paw tissue compared to sham” value in the experiment with macrophages is “no significant difference”. Moreover, the “inhibition of tryptase-induced Ca^2+ response” value against hPAR2 was “only partial inhibition at low”. Moreover, in experiment [1], the “MPO activity (unit mg^-1)” value is 0.2692 unit mg^-1 and 0.2802 unit mg^-1 and 0.295 unit mg^-1 and 0.3577 unit mg^-1; the “Myeloperoxidase (MPO) activity increased by 2f-LIGRLO-NH2” value is “reduced almost to baseline”.
As for `CCCc1cc(F)ccc1C(O)c1ncc[nH]1` (stereo not shown) [AZ8838], the histamine release entry in the experiment on mast cells was “blocked”. Besides, the “number of ED1 +ve cells in rat paw tissue compared to sham” value with macrophages was “no significant difference”. For the same compound, in experiment [1], the “MPO activity (unit mg^-1)” value was 0.2682 unit mg^-1 and 0.2003 unit mg^-1 and 0.454 unit mg^-1 and 0.2121 unit mg^-1 and 0.4127 unit mg^-1; the “Myeloperoxidase (MPO) activity increased by 2f-LIGRLO-NH2” value is given as “reduced almost to baseline”.
